We go through 30 molecules from patent publication US12624003B2, “Carboxylic acid containing indanyl compounds for the treatment of neurodegenerative diseases” (Celgene Corporation, priority 2020, dated 2026).

As a reminder, the pEC50 is the negative decadic logarithm of the EC50, by convention in mol/L.

pEC50: −log10 of the molar value. A value given as a limit tells only on which side of the number the result lay.

The target in this assay is T1, S1P5 (Homo sapiens, UniProt Q9H228).
T1 construct: expressed in transfected cells; host or cells: CHO cells (membranes)
T1 sequence (Q9H228 whole entry, species assumed): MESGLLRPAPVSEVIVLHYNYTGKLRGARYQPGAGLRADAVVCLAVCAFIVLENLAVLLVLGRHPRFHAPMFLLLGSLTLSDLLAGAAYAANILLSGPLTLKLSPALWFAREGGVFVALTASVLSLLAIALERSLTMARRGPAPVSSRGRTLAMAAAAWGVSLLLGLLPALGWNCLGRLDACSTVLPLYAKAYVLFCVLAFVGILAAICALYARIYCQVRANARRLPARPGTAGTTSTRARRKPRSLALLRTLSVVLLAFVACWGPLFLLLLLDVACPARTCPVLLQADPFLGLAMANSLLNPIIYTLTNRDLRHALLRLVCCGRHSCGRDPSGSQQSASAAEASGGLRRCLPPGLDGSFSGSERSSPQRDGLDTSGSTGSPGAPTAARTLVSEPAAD
The experiment in a line: [35S]-GTPγS functional binding assay on CHO-S1P5 membranes. Type of assay: biochemical. The note with it: membranes of CHO cells expressing recombinant S1P5 receptors; measure of S1P5 agonism. The method, then:
CHO cells expressing recombinant S1P5 receptors were cultured in 500 cm^2 culture trays and, once confluent, rinsed and detached with cell-lifting buffer (10 mM HEPES, 154 mM NaCl, 6.85 mM EDTA, pH 7.4). Cells were then pelleted by centrifugation, resuspended, and homogenized in membrane preparation buffer (10 mM HEPES and 10 mM EDTA, pH 7.4) using a Polytron PT 1200E homogenizer (Kinematica, Luzern, Switzerland). Cellular proteins were pelleted by centrifugation at 48,000×g at 4° C. for 30 minutes. The resulting supernatant was discarded, and the pellet was re-suspended again in membrane preparation buffer, homogenized for a second time, and then centrifuged again as described above. The final cellular protein pellet was suspended in ice cold resuspension buffer (10 mM HEPES and 0.1 mM EDTA, pH 7.4), divided into aliquots, and stored at −80° C. until use.
Functional binding assays for [^35S]-GTPγS were performed in 96-well non-binding surface plates with a final volume of 200 μL. The test compounds were serially diluted in DMSO and added to assay plates using a Tecan D300E digital printer with a total volume of 0.4 μL. The control sphingosine-1-phosphate (S1P) was prepared separately by preparing a 400 μM stock solution from a 100 nmol pellet of SIP in 10 mM Na2CO3 with 2% s-cyclodextrin. The serial dilution of S1P was done using complete assay buffer (20 mM HEPES, 10 mM MgCl2, 100 mM NaCl, 1 mM EDTA, 0.1% fatty acid free bovine serum albumin (BSA), and 30 μg/mL saponin, pH 7.4) and transferred to wells already containing 0.4 μL DMSO. All the wells were then loaded to a total volume of 40 μL of complete assay buffer, except the non-specific binding (NSB) wells. For NSB wells, 40 μL/well of 50 μM GTPγS (Sigma Aldrich, cat #G8634, St. Louis, MO) was added to wells containing 0.4 μL of DMSO. The assay was started by the addition of 120 μL/well of CHO-S1P receptor membrane solution containing 40 μg/mL of membrane protein, 16.67 μM guanosine diphosphate (GDP; Sigma Aldrich, cat #G7127, St. Louis, MO), and 2.5 mg/mL of WGA PVT SPA beads in complete buffer. Assay plates were then sealed and incubated at room temperature with gentle agitation for 30 minutes. Next, 40 μL/well of 1 nM of [^35S]-GTPγS (PerkinElmer, cat #NEG030X250UC, Waltham, MA) in basic assay buffer (20 mM HEPES, 10 mM MgCl2, 100 mM NaCl, and 1 mM EDTA, pH 7.4) was added to the assay plates to yield a final concentration of […] and the plates were further incubated for 40 minutes at room temperature with gentle agitation. The assay was terminated by centrifugation of the plates at 1000 rpm for 3 minutes using an Eppendorf 5810R centrifuge (Eppendorf, Hamburg, Germany) and G protein bound radioactivity was quantitated using a MicroBeta2 microplate scintillation counter (PerkinElmer, Waltham, MA). As G protein bound radioactivity directly correlates to receptor activation and coupling to the G protein, this assay is a measure of S1P5 agonism.
Background: GTPγS resists hydrolysis and so accumulates on activated G proteins.
Turning to `O=C(O)C1(F)CCN(C2CCc3cc(C#Cc4c(Cl)cccc4Cl)ccc32)CC1` (single isomer, unassigned) [Compound 3a, 1-(5-((2,6-dichlorophenyl)ethynyl)-2,3-dihydro-1H-inden-1-yl)-4-fluoropiperidine-4-carboxylic acid], the pEC50 was ≥ 8.00. The figure for `O=C(O)C1(F)CCN(C2CCc3cc(C#Cc4c(Cl)cccc4Cl)ccc32)CC1` (single isomer, unassigned) [Compound 3b, 1-(5-((2,6-dichlorophenyl)ethynyl)-2,3-dihydro-1H-inden-1-yl)-4-fluoropiperidine-4-carboxylic acid] is ≥ 8.00.

For `O=C(O)C1CCN(C2CCc3cc(C#Cc4cccc(F)c4)ccc32)CC1` (single isomer, unassigned) [Compound 4a, 1-(5-((3-fluorophenyl)ethynyl)-2,3-dihydro-1H-inden-1-yl)piperidine-4-carboxylic acid], the pEC50 is 6.00 to 7.00. As for `O=C(O)C1CCN(C2CCc3cc(C#Cc4cccc(F)c4)ccc32)CC1` (single isomer, unassigned) [Compound 4b, 1-(5-((3-fluorophenyl)ethynyl)-2,3-dihydro-1H-inden-1-yl)piperidine-4-carboxylic acid], the figure is ≥ 8.00; as for `O=C(O)C1CCN(C2CCc3cc(C#Cc4ccccc4F)ccc32)CC1` (single isomer, unassigned) [Compound 6a, 1-(5-((2-fluorophenyl)ethynyl)-2,3-dihydro-1H-inden-1-yl)piperidine-4-carboxylic acid], 7.00 to 8.00; as for `O=C(O)C1CCN(C2CCc3cc(C#Cc4ccccc4F)ccc32)CC1` (single isomer, unassigned) [Compound 6b, 1-(5-((2-fluorophenyl)ethynyl)-2,3-dihydro-1H-inden-1-yl)piperidine-4-carboxylic acid], ≥ 8.00. As for `O=C(O)[C@@H]1CCCN(C2CCc3cc(C#Cc4cccc(F)c4)ccc32)C1` (single isomer, unassigned) [Compound 7a], the figure is 7.00 to 8.00; as for `O=C(O)[C@@H]1CCCN(C2CCc3cc(C#Cc4cccc(F)c4)ccc32)C1` (single isomer, unassigned) [Compound 7b], 6.00 to 7.00. As for `O=C(O)[C@@H]1CCCCN1C1CCc2cc(C#Cc3cccc(F)c3)ccc21` (single isomer, unassigned) [Compound 8a], the figure is 6.00 to 7.00; as for `O=C(O)[C@@H]1CCCCN1C1CCc2cc(C#Cc3cccc(F)c3)ccc21` (single isomer, unassigned) [Compound 8b], 5.00 to 6.00; as for `O=C(O)[C@H]1CCCCN1C1CCc2cc(C#Cc3cccc(F)c3)ccc21` (single isomer, unassigned) [Compound 9a], 5.00 to 6.00. As for `O=C(O)[C@H]1CCCCN1C1CCc2cc(C#Cc3cccc(F)c3)ccc21` (single isomer, unassigned) [Compound 9b], the pEC50 is 5.00 to 6.00. `O=C(O)[C@H]1CCN(C2CCc3cc(C#Cc4cccc(F)c4)ccc32)C1` (single isomer, unassigned) [Compound 13a]: the pEC50 is 7.00 to 8.00. The figure for `O=C(O)[C@H]1CCN(C2CCc3cc(C#Cc4cccc(F)c4)ccc32)C1` (single isomer, unassigned) [Compound 13b] is 7.00 to 8.00; for `O=C(O)[C@@H]1CCN(C2CCc3cc(C#Cc4cccc(F)c4)ccc32)C1` (single isomer, unassigned) [Compound 14a] it is ≥ 8.00. For the molecule `O=C(O)[C@@H]1CCN(C2CCc3cc(C#Cc4cccc(F)c4)ccc32)C1` (single isomer, unassigned) [Compound 14b], the pEC50 is ≥ 8.00. On to `O=C(O)C1CN(C2CCc3cc(C#Cc4c(Cl)cccc4Cl)ccc32)C1` (single isomer, unassigned) [Compound 18, 1-(5-((2,6-dichlorophenyl)ethynyl)-2,3-dihydro-1H-inden-1-yl)azetidine-3-carboxylic acid], for which the pEC50 was ≥ 8.00. Consider `O=C(O)C1CN(C2CCc3cc(C#Cc4cccc(F)c4)ccc32)C1` (single isomer, unassigned) [Compound 19, 1-(5-((3-fluorophenyl)ethynyl)-2,3-dihydro-1H-inden-1-yl)azetidine-3-carboxylic acid], for which the pEC50 was ≥ 8.00.

Consider `O=C(O)C1CN(C2CCc3cc(C#Cc4cc(F)ccc4F)ccc32)C1` (single isomer, unassigned) [Compound 20, 1-(5-((2,5-difluorophenyl)ethynyl)-2,3-dihydro-1H-inden-1-yl)azetidine-3-carboxylic acid], for which the pEC50 is ≥ 8.00.

`O=C(O)C1CCN(C2CCc3cc(CCc4c(Cl)cccc4Cl)ccc32)CC1` (single isomer, unassigned) [Compound 22a, 1-(5-(2,6-dichlorophenethyl)-2,3-dihydro-1H-inden-1-yl)piperidine-4-carboxylic acid]: the pEC50 is ≥ 8.00. Take `O=C(O)C1CCN(C2CCc3cc(CCc4c(Cl)cccc4Cl)ccc32)CC1` (single isomer, unassigned) [Compound 22b, 1-(5-(2,6-dichlorophenethyl)-2,3-dihydro-1H-inden-1-yl)piperidine-4-carboxylic acid]: the pEC50 was ≥ 8.00.

Take `O=C(Cc1c(Cl)cccc1Cl)c1ccc2c(c1)CCC2N1CCC(C(=O)O)CC1` (single isomer, unassigned) [Compound 23, 1-(5-(2-(2,6-dichlorophenyl)acetyl)-2,3-dihydro-1H-inden-1-yl)piperidine-4-carboxylic acid]: the pEC50 is 7.00 to 8.00. In the case of `O=C(Cc1ccc2c(c1)CCC2N1CCC(C(=O)O)CC1)c1c(Cl)cccc1Cl` (single isomer, unassigned) [Compound 24, 1-(5-(2-(2,6-dichlorophenyl)-2-oxoethyl)-2,3-dihydro-1H-inden-1-yl)piperidine-4-carboxylic acid], the negative logarithm of the EC50 (pEC50) was 7.00 to 8.00. As for `O=C(O)C1CCN(C2CCc3cc(CCc4ccccc4Cl)ccc32)CC1` (single isomer, unassigned) [Compound 25a, 1-(5-(2-chlorophenethyl)-2,3-dihydro-1H-inden-1-yl)piperidine-4-carboxylic acid], the figure is 7.00 to 8.00; as for `O=C(O)C1CCN(C2CCc3cc(CCc4ccccc4Cl)ccc32)CC1` (single isomer, unassigned) [Compound 25b, 1-(5-(2-chlorophenethyl)-2,3-dihydro-1H-inden-1-yl)piperidine-4-carboxylic acid], 6.00 to 7.00; as for `O=C(O)C1CCN(C2CCc3cc(CCc4cccc(F)c4)ccc32)CC1` (single isomer, unassigned) [Compound 26a, 1-(5-(3-fluorophenethyl)-2,3-dihydro-1H-inden-1-yl)piperidine-4-carboxylic acid], 6.00 to 7.00.

Take `O=C(O)C1CCN(C2CCc3cc(CCc4cccc(F)c4)ccc32)CC1` (single isomer, unassigned) [Compound 26b, 1-(5-(3-fluorophenethyl)-2,3-dihydro-1H-inden-1-yl)piperidine-4-carboxylic acid]: the pEC50 was 7.00 to 8.00. Take `O=C(O)C1CCN(C2CCc3cc(CCc4cccc(Cl)c4)ccc32)CC1` (single isomer, unassigned) [Compound 27a, 1-(5-(3-chlorophenethyl)-2,3-dihydro-1H-inden-1-yl)piperidine-4-carboxylic acid]: the pEC50 is ≥ 8.00. As for `O=C(O)C1CCN(C2CCc3cc(CCc4cccc(Cl)c4)ccc32)CC1` (single isomer, unassigned) [Compound 27b, 1-(5-(3-chlorophenethyl)-2,3-dihydro-1H-inden-1-yl)piperidine-4-carboxylic acid], the figure is 6.00 to 7.00; as for `O=C(O)C1CCN(C2CCc3cc(CCc4c(F)cccc4F)ccc32)CC1` (single isomer, unassigned) [Compound 28a, 1-(5-(2,6-difluorophenethyl)-2,3-dihydro-1H-inden-1-yl)piperidine-4-carboxylic acid], 6.00 to 7.00.
